The supplement of paper PMC4862054

How the values were obtained:
[1] = tested on: MDA-MB-436; settings: 72 h
Outline: (§1)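 For viability, cells received 2.5 µl CellTiter-Blue for 2 h at 37 °C and fluorescence was read at 560/590 nm. Before this, breast cancer cell lines in 20 µl suspension had been incubated for 72 h on 384-well plates pre-loaded with compound dissolved in 5 µl medium. EC50 was obtained from a percent-inhibition dose-response fit censored at the highest concentration, after normalisation of each plate to vehicle and a positive kill control; rows with a zero drug sensitivity score were discarded.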

[2] = tested on: CAL-120; settings: 72 h
Outline: as §1

[3] = tested on: BT-549; settings: 72 h
Outline: as §1

[4] = tested on: SK-BR-3; settings: 72 h
Outline: as §1

[5] = tested on: HCC1937; settings: 72 h
Outline: as §1

[6] = tested on: MDA-MB-436; test: normalised viability (% of control), CellTiter-Blue; higher = more viable cells (about 100 = DMSO control); settings: incubation time: 72 h
Outline: (§2)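 The reported quantity is normalised viability at a single listed concentration of the series. Compound in 5 µl medium was pre-dispensed into 384-well plates and 20 µl of breast cancer cell suspension was added for 72 h. A 2 h, 37 °C CellTiter-Blue step (2.5 µl) preceded fluorescence reading at 560/590 nm, and plates were normalised to vehicle (100) and a positive kill control (0).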

[7] = tested on: CAL-51; test: as above; settings: incubation time: 72 h
Outline: as §2

[8] = tested on: CAL-120; test: as above; settings: incubation time: 72 h
Outline: as §2

[9] = tested on: HCC1143; test: as above; settings: incubation time: 72 h
Outline: as §2

Row | SMILES | EC50, CellTiter-Blue viability [1] | EC50, CellTiter-Blue viability [3] | EC50, CellTiter-Blue viability [4] | EC50, CellTiter-Blue viability [5] | EC50, CellTiter-Blue viability [2] | normalised viability ([6]; 10 nM) | normalised viability ([6]; 1000 nM) | normalised viability ([6]; 10000 nM) | normalised viability ([7]; 3 nM) | normalised viability ([7]; 30 nM) | normalised viability ([7]; 100 nM) | normalised viability ([8]; 10 nM) | normalised viability ([8]; 1000 nM) | normalised viability ([8]; 10000 nM) | normalised viability ([9]; 10 nM) | normalised viability ([9]; 1000 nM) | normalised viability ([9]; 10000 nM) | normalised viability ([6]; 1 nM) | normalised viability ([6]; 100 nM) | normalised viability ([7]; 0.3 nM) | normalised viability ([7]; 10 nM) | normalised viability ([8]; 1 nM) | normalised viability ([8]; 100 nM) | normalised viability ([9]; 1 nM) | normalised viability ([9]; 100 nM)
1 | CN1CCC(COc2cnc(-c3cccc(Cn4nc(-c5cccc(C#N)c5)ccc4=O)c3)nc2)CC1 | 3530 nM | 2770 nM | 2470 nM | 3980 nM | 4950 nM | 82.3% | 92.3% | 11.6% | 97.3% | 98% | 87.6% | 97.3% | 116% | 11.8% | 116% | 103% | 114% | – | – | – | – | – | – | – | –
2 | Nc1ccn([C@@H]2O[C@H](CO)[C@@H](O)[C@@H]2O)c(=O)n1 [Cytarabine] | 156 nM | 12.8 nM | 487 nM | 117 nM | 246 nM | 98.2% | 74.3% | 74.1% | 94.1% | 91.9% | 79.8% | 95.6% | 66.4% | 56.9% | 80.5% | 71.4% | 63% | – | – | – | – | – | – | – | –
3 | COc1cc(Nc2ncc3c(n2)-c2ccc(Cl)cc2C(c2c(F)cccc2OC)=NC3)ccc1C(=O)O [MLN8237] | 145 nM | 918 nM | 14.9 nM | 24.6 nM | 593 nM | 133% | 54.7% | 70.8% | 102% | 91.8% | 64.3% | 104% | 59.8% | 33.6% | 112% | 70.7% | 51.1% | – | – | – | – | – | – | – | –
4 | COc1cccc2cc(-c3nc([C@H]4CC[C@H](C(=O)O)CC4)n4ncnc(N)c34)[nH]c12 [OSI-027] | 370 nM | 2580 nM | 73.4 nM | 771 nM | 1800 nM | 76.6% | 56.4% | 31.6% | 97.3% | 93.8% | 84.6% | 101% | 66.4% | 12.5% | 101% | 72.9% | 35% | – | – | – | – | – | – | – | –
5 | C=CCNC1=C2C[C@@H](C)C[C@H](OC)[C@H](O)[C@@H](C)/C=C(\C)[C@H](OC(N)=O)[C@@H](OC)/C=C\C=C(/C)C(=O)NC(=CC1=O)C2=O [Tanespimycin] | 25.2 nM | 20.9 nM | 15.7 nM | 100 nM | 218 nM | 88.8% | 24.9% | 17.5% | 118% | 108% | 81.9% | 74.2% | 24.2% | 16.4% | 64.6% | 30.2% | 29.3% | – | – | – | – | – | – | – | –
6 | CO[C@H]1C[C@@H]2CC[C@@H](C)[C@@](O)(O2)C(=O)C(=O)N2CCCC[C@H]2C(=O)O[C@H]([C@H](C)C[C@@H]2CC[C@@H](OC(=O)C(C)(CO)CO)[C@H](OC)C2)CC(=O)[C@H](C)/C=C(\C)[C@@H](O)[C@@H](OC)C(=O)[C@H](C)C[C@H](C)/C=C/C=C/C=C/1C [Temsirolimus] | 5.05 nM | 0.18 nM | 0.92 nM | – | 1.07 nM | – | 69.5% | – | 55.5% | – | – | – | 42.7% | – | – | 61% | – | 81.8% | 80.6% | 89.4% | 37.5% | 70.6% | 46.5% | 75.7% | 66.5%
7 | CC[C@]1(O)C[C@@H]2CN(CCc3c([nH]c4ccccc34)[C@@](C(=O)OC)(c3cc4c(cc3OC)N(C)[C@H]3[C@@](O)(C(=O)OC)[C@H](OC(C)=O)[C@]5(CC)C=CCN6CC[C@]43[C@@H]65)C2)C1 [Vinblastine] | 5.02 nM | 3.04 nM | 0.3 nM | 0.67 nM | 0.3 nM | – | 37% | – | 106% | – | – | – | 20.1% | – | – | 29.5% | – | 93% | 28.8% | 108% | 96.4% | 35.4% | 18.5% | 77.3% | 42.7%

Second part, led by results:

Row | EC50, CellTiter-Blue viability [1] | EC50, CellTiter-Blue viability [3] | EC50, CellTiter-Blue viability [4] | EC50, CellTiter-Blue viability [5] | SMILES | EC50, CellTiter-Blue viability [2] | normalised viability ([6]; 10 nM) | normalised viability ([6]; 1000 nM) | normalised viability ([6]; 10000 nM) | normalised viability ([7]; 3 nM) | normalised viability ([7]; 30 nM) | normalised viability ([7]; 100 nM) | normalised viability ([8]; 10 nM) | normalised viability ([8]; 1000 nM) | normalised viability ([8]; 10000 nM) | normalised viability ([9]; 10 nM) | normalised viability ([9]; 1000 nM) | normalised viability ([9]; 10000 nM) | normalised viability ([6]; 1 nM) | normalised viability ([6]; 100 nM) | normalised viability ([7]; 0.3 nM) | normalised viability ([7]; 10 nM) | normalised viability ([8]; 1 nM) | normalised viability ([8]; 100 nM) | normalised viability ([9]; 1 nM) | normalised viability ([9]; 100 nM)
8 | 5410 nM | 2700 nM | 7.53 nM | 1910 nM | CN(C)C/C=C/C(=O)Nc1cc2c(Nc3ccc(F)c(Cl)c3)ncnc2cc1O[C@H]1CCOC1 [Afatinib] | 836 nM | 90.8% | 103% | 17.3% | 114% | 99.8% | 97.7% | 71.8% | 66.1% | 13.2% | 66% | 70% | 42.9% | – | – | – | – | – | – | – | –
9 | 330 nM | 298 nM | 79.7 nM | 133 nM | CN1CC[C@H](c2c(O)cc(O)c3c(=O)cc(-c4ccccc4Cl)oc23)[C@H](O)C1 [Alvocidib] | 98.2 nM | 91% | 14.9% | 15.8% | 109% | 92.5% | 78.1% | 67.7% | 10.7% | 11.1% | 76.5% | 14.1% | 15.1% | – | – | – | – | – | – | – | –
10 | 799 nM | 839 nM | 884 nM | 73.4 nM | Nc1nc(Cl)nc2c1ncn2[C@H]1C[C@H](O)[C@@H](CO)O1 [Cladribine] | 923 nM | – | 65.8% | – | 116% | – | – | – | 48.1% | – | – | 72.2% | – | 101% | 90% | 119% | 114% | 87.2% | 79.7% | 91.9% | 87.6%
11 | 6.66 nM | 1.27 nM | 2.91 nM | 2.17 nM | Cc1c2oc3c(C)ccc(C(=O)N[C@@H]4C(=O)N[C@H](C(C)C)C(=O)N5CCC[C@H]5C(=O)N(C)CC(=O)N(C)[C@@H](C(C)C)C(=O)O[C@@H]4C)c3nc-2c(C(=O)N[C@@H]2C(=O)N[C@H](C(C)C)C(=O)N3CCC[C@H]3C(=O)N(C)CC(=O)N(C)[C@@H](C(C)C)C(=O)O[C@@H]2C)c(N)c1=O [Dactinomycin] | 1.09 nM | – | 9.7% | – | 50% | – | – | – | 9.97% | – | – | 16% | – | 48.8% | 13.1% | 99.7% | 17.8% | 51% | 11.9% | 50.3% | 17.6%
12 | 190 nM | 196 nM | 49.4 nM | 55.1 nM | COc1cccc2c1C(=O)c1c(O)c3c(c(O)c1C2=O)C[C@@](O)(C(=O)CO)C[C@@H]3O[C@H]1C[C@H](N)[C@H](O)[C@H](C)O1 [Doxorubicin] | 96.4 nM | – | 18.2% | – | 100% | – | – | – | 6.93% | – | – | 32.2% | – | 90.6% | 64.5% | 102% | 96.2% | 96.2% | 52.6% | 101% | 60.2%
